# Results published in patent publication US20260049140A1 (Janux Therapeutics, Inc., priority 2023, published 2026).
# Like-named read-outs stand apart in the source and are kept apart here.
# Target: wild-type and mutant CD3 binding domains harbored within TROP2 TCE constructs
# Assay: ELISA binding of peptide masks to wild-type and mutated TROP2 TCEs
# Details: captured biotinylated peptide or CD3-biotin
# [1] = read-out: TCE-3 (3075) (R100A) EC50, binding of TCE-3, anti-CD3 R100A
# [2] = read-out: TCE-7 (3079) (F104A) EC50, binding of TCE-7, anti-CD3 F104A
# [3] = read-out: TCE-13 (3085) (S110A) EC50, binding of TCE-13, anti-CD3 S110A
# [4] = read-out: TCE-14 (3086) (Y111A) EC50, binding of TCE-14, anti-CD3 Y111A
# [5] = read-out: TCE-15 (3087) (W112A) EC50, binding of TCE-15, anti-CD3 W112A
# [6] = read-out: TCE-19 (3091) (W233A) EC50, binding of TCE-19, anti-CD3 W233A
# [7] = read-out: TCE-24 (3096) (W238A) EC50, binding of TCE-24, anti-CD3 W238A
# [8] = read-out: TCE-26 (3098) (F240A) EC50, binding of TCE-26, anti-CD3 F240A
# [9] = read-out: TCE-6 (3078) (N103A) EC50, binding of TCE-6, anti-CD3 N103A
# [10] = read-out: TCE-4 (3076) (H101A) EC50, binding of TCE-4, anti-CD3 H101A
# Experimental: Binding was measured in a standard ELISA format. […] Bound TCEs were detected using a standard horse radish peroxidase conjugate secondary antibody. The ELISA signal was plotted versus the log-scale concentration of TCE. The concentrations of TCE required to observe half maximal binding signal (EC50s) were calculated using Graphpad Prism software.
Compound,EC50 [1] [nM],EC50 [2] [nM],EC50 [3] [nM],EC50 [4] [nM],EC50 [5] [nM],EC50 [6] [nM],EC50 [7] [nM],EC50 [8] [nM],EC50 [9] [nM],"EC50 (read-out: TCE-28 (3100) EC50, binding of TCE-28) [nM]","EC50 (read-out: TCE-1 (2340) (wt) EC50, binding of TCE-1, wild-type anti-CD3) [nM]",EC50 [10] [nM],"EC50 (read-out: TCE-27 (3099) EC50, binding of TCE-27) [nM]"
CC(C)C[C@@H]1NC(=O)[C@@H](NC(=O)[C@H](CCC(N)=O)NC(=O)[C@H](CO)NC(=O)CN)CSSC[C@@H](C(=O)N2CCC[C@H]2C(=O)N[C@@H](Cc2ccc(O)cc2)C(=O)O)NC(=O)[C@H](C(C)C)NC(=O)[C@H](CCC(=O)O)NC(=O)[C@H](Cc2c[nH]c3ccccc23)NC(=O)[C@H](CCC(=O)O)NC(=O)[C@@H]2CCCN2C(=O)CNC1=O [Peptide-2],0.58,0.63,3.65,49.1,26.4,6.28,6.34,8.02,–,–,–,–,–
CSCC[C@H](NC(=O)[C@@H]1CSSC[C@H](NC(=O)[C@H](Cc2ccc(O)cc2)NC(=O)[C@@H](N)C(C)C)C(=O)NCC(=O)N2CCC[C@H]2C(=O)N[C@@H](CCC(=O)O)C(=O)N[C@@H](Cc2ccccc2)C(=O)N[C@@H](CC(=O)O)C(=O)N[C@@H](CCC(=O)O)C(=O)N[C@@H](CO)C(=O)N[C@@H](C(C)C)C(=O)NCC(=O)N1)C(=O)O [Peptide-3],1.76,–,0.66,77.7,10.5,6.46,5.96,5.78,0.2,0.41,–,–,–
CC(C)C[C@@H]1NC(=O)[C@H](CC(=O)O)NC(=O)[C@H](C(C)C)NC(=O)[C@H](CC(C)C)NC(=O)[C@@H](NC(=O)[C@H](CCC(=O)O)NC(=O)[C@@H](N)CO)CSSC[C@@H](C(=O)N[C@@H](Cc2ccc(O)cc2)C(=O)N[C@@H](Cc2c[nH]c3ccccc23)C(=O)O)NC(=O)[C@@H]2CCCN2C(=O)[C@H](CC(=O)O)NC(=O)[C@H](CO)NC(=O)[C@H](CCC(N)=O)NC1=O [Peptide-5],8.73,1.93,0.95,572,48.2,0.35,0.29,0.76,1.69,–,0.3,6.94,0.31
CSCC[C@H](NC(=O)[C@@H]1CSSC[C@H](NC(=O)[C@H](Cc2ccc(O)cc2)NC(=O)[C@H](C)N)C(=O)NCC(=O)N2CCC[C@H]2C(=O)N[C@@H](CCC(=O)O)C(=O)N[C@@H](Cc2ccccc2)C(=O)N[C@@H](CC(=O)O)C(=O)N[C@@H](CCC(=O)O)C(=O)N[C@@H](CO)C(=O)N[C@@H](C(C)C)C(=O)NCC(=O)N1)C(=O)O [Peptide-8],1.85,–,0.76,76.9,11.2,6.43,5.66,5.78,–,–,–,1.36,–
CC(C)C[C@@H]1NC(=O)[C@@H](NC(=O)[C@H](CCC(N)=O)NC(=O)[C@H](CO)NC(=O)[C@H](C)N)CSSC[C@@H](C(=O)N2CCC[C@H]2C(=O)N[C@@H](Cc2ccc(O)cc2)C(=O)O)NC(=O)[C@H](C(C)C)NC(=O)[C@H](CCC(=O)O)NC(=O)[C@H](Cc2c[nH]c3ccccc23)NC(=O)[C@H](CCC(=O)O)NC(=O)[C@@H]2CCCN2C(=O)CNC1=O [Peptide-10],0.68,0.66,3.46,64.2,23.4,5.47,5.33,5.9,0.36,–,–,0.83,–
CC(C)C[C@@H]1NC(=O)[C@@H](NC(=O)[C@H](C)NC(=O)[C@H](CO)NC(=O)CN)CSSC[C@@H](C(=O)N2CCC[C@H]2C(=O)N[C@@H](Cc2ccc(O)cc2)C(=O)O)NC(=O)[C@H](C(C)C)NC(=O)[C@H](CCC(=O)O)NC(=O)[C@H](Cc2c[nH]c3ccccc23)NC(=O)[C@H](CCC(=O)O)NC(=O)[C@@H]2CCCN2C(=O)CNC1=O [Peptide-11],0.76,0.88,3.82,95.6,38.2,6.26,7.08,9.2,–,–,–,1.05,–
